Reference: US8652787B2, “Use of ERBB4 as a prognostic and therapeutic marker for melanoma” (The United States of America, as represented by the …, priority 2008, dated 2014)
“Also recorded” adds a separate entry of the source.

What was measured:
ERBB4 (P-Y1162) = experiment: Immunoprecipitation and western blot of ERBB4 autophosphorylation in lapatinib-treated melanoma cells; format: cell-based, human
Protocol: (§1) Cells were treated for 72 hours in the presence of increasing concentrations (0.01-30 μM) of lapatinib, and relative cell number was estimated by methylene blue protein staining and plotted as percent survival when compared to vehicle-treated control versus Log (lapatinib) nM (where 1 is 10 nM lapatinib). Fitted lines were generated using 4-parameter nonlinear regression via GraphPad Prism. […] The IC50 values for inhibition of cell growth by 72 hour treatment with lapatinib of a larger panel of lines harboring WT and mutant ERBB4 were analyzed using GraphPad Prism v.5 (n=3). (C) Immunoprecipitation and western blot analysis of ERBB4 autophosphorylation in cells treated with lapatinib. Cells were treated for 1 hour with lapatinib or vehicle alone as control. […] The activity of ERBB4, AKT and ERBB2 was determined by immunoblotting with phospho-specific antibodies. […] Lysates and immunoprecipitates were analyzed by western blotting using the indicated antibodies. […] (E) Quantitative assessment of data from 2 cell lines harboring WT ERBB4 and 3 cell lines harboring mutant ERBB4 that were performed similarly to (D). […] (G) Quantitation of FACS-sorted lapatinib-treated cells. The percent apoptotic cells were determined based on the sub-G1 population for vehicle-treated cells or lapatinib-treated cells.

[1] = tested on: melanoma cell lines harboring mutant ERBB4; experiment: Growth inhibition of melanoma cell lines by lapatinib (72 h, methylene blue staining / SYBR Green I); format: cell-based, human
Protocol: as §1

ERBB2 (P-Y1248) = ERBB2 (P-Y1248) (Homo sapiens, UniProt P04626); experiment: Immunoprecipitation and western blot of ERBB2 phosphorylation in lapatinib-treated melanoma cells; format: cell-based; details: 1 hour, 5 μM lapatinib
Sequence of ERBB2 (P-Y1248) (P04626 23-1255): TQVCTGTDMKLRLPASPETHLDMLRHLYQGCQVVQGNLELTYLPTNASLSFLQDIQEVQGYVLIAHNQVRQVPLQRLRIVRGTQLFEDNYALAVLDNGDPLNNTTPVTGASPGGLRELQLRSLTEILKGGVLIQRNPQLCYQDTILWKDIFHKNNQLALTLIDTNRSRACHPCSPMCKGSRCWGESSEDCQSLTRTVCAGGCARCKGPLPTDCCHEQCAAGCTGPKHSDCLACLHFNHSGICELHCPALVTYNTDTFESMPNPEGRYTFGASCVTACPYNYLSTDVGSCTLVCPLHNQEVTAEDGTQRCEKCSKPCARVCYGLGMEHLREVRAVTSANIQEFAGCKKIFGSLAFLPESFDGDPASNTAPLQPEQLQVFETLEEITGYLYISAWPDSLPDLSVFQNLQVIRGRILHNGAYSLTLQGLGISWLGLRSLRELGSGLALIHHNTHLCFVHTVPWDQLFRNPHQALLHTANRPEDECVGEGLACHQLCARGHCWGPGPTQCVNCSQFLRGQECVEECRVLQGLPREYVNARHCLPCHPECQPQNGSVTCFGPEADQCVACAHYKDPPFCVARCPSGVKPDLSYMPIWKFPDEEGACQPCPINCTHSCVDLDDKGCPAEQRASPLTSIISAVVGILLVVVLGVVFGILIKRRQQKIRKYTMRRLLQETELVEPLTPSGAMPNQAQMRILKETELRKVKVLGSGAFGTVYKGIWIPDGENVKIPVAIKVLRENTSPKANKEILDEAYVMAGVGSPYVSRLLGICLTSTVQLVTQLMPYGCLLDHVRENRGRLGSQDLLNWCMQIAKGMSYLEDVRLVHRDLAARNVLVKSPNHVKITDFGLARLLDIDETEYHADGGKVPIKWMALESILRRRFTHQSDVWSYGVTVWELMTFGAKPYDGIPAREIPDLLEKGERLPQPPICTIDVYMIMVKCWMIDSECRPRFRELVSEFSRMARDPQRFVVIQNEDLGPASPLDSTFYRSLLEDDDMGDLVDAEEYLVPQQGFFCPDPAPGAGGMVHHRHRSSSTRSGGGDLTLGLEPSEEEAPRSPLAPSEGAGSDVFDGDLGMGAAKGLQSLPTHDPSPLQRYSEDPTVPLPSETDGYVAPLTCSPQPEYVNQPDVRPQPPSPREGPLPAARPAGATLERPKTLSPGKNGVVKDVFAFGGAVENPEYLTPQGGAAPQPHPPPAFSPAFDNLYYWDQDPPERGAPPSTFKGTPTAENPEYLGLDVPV
Protocol: as §1

[2] = tested on: melanoma cells harboring mutant ERBB4 or WT ERBB4; experiment: Flow cytometry (PI staining) of the sub-G1 apoptotic population after lapatinib; format: cell-based, human; details: 72 hours, 5 μM lapatinib, FACS
Protocol: as §1

ERK1 and ERK2 = experiment: Western blot of ERK1/2 phosphorylation in lapatinib-treated melanoma cells; format: cell-based, human; details: 72 hours, 5 μM lapatinib; P-ERK1/ERK1, P-ERK2/ERK2
Protocol: FIG. 14: Effect of lapatinib in ERK1/2 signaling pathways. […] Cells were treated for 72 hours with 5 μM lapatinib or vehicle as control. The activity of ERK1 and ERK2 was determined by immunoblotting with phospho-specific antibodies. Total ERK protein was also determined by immunoblotting. Shown are representative blots. (B) Quantitative assessment of data from one melanoma cell line harboring mutant ERBB4. The ratio of band intensities of P-ERK1/ERK1 or P-ERK2/ERK2 was analyzed for each melanoma cell line.
Transfected cells were washed 3× in PBS and lysed using 0.5 ml 1% NP-40 lysis buffer (1% NP-40, 50 mM Tris-HCl pH 7.5, 150 mM NaCl, complete protease inhibitor tablet, EDTA-free (Roche, Indianapolis, Ind.), 1 μM sodium orthovanadate, 1 mM sodium fluoride, and 0.1% β-mercaptoethanol) per T-75 flask for 20 minutes on ice. Lysed cells were scraped and transferred into a 1.5 mL microcentrifuge tube. Extracts were centrifuged for 10 minutes at 14,000 rpm at 4° C. […]
Scanned films from western blot analysis of SDS-PAGE were analyzed using ImageJ (NIH software). Individual bands were quantitated and plots were generated to determine the intensities in each band. The data was then exported to Microsoft Excel and analyzed further for phospho:total ratios of protein.

AKT (P-S473) = experiment: Western blot of AKT phosphorylation in lapatinib-treated melanoma cells; format: cell-based, human; details: 1 hour, 5 μM lapatinib
Protocol: as §1

- fold greater sensitivity to lapatinib (from IC50) of melanoma cells harboring ERBB4 mutations than cells with WT receptor ([1]; IC50 for inhibition of cell growth, 72 hour treatment, n=3): 10- to 250 fold
- inhibition of ERBB2 in melanoma cell lines (ERBB2 (P-Y1248)): No inhibition
SMILES: CS(=O)(=O)CCNCc1ccc(-c2ccc3ncnc(Nc4ccc(OCc5cccc(F)c5)c(Cl)c4)c3c2)o1 [lapatinib]
- inhibition of ERBB4 activation in cells harboring mutant ERBB4 (ERBB4 (P-Y1162); 1 hour, 5 μM lapatinib, (P-Y1162)-ERBB4/ERBB4): specific inhibition of ERBB4 and AKT activation
- inhibition of ERBB4 receptor autophosphorylation (ERBB4 (P-Y1162); cells treated for 1 hour with lapatinib, α-P-ERBB4 (Y1162)): inhibited receptor autophosphorylation in a dose-dependent manner
- reduction of cell proliferation / sensitivity to lapatinib, ERBB4 mutant versus WT ERBB4 melanoma cells ([1]; 72 hours, 0.01-30 μM lapatinib, compared with cells containing endogenous WT ERBB4): increased sensitivity to lapatinib compared to WT ERBB4 cell lines; also recorded: reduced cell proliferation to a greater extent in cells containing endogenous ERBB4 mutations
- apoptosis (sub-G1 population) of melanoma cells harboring mutant ERBB4 compared to WT ERBB4 lines [2]: increased sub-G1 population
- apoptosis (sub-G1 population) of melanoma cells harboring mutant ERBB4 compared to WT ERBB4 lines ([2]; listed as Lapatinib): markedly increased apoptosis
- inhibition of ERK activation (ERK1 and ERK2): slightly inhibited; also recorded: increased lapatinib sensitivity with respect to ERK1 and ERK2 phosphorylation
- inhibition of AKT activation in cells harboring mutant ERBB4 (AKT (P-S473)): specific inhibition of ERBB4 and AKT activation
